The results in this text go back to patent US20070066606A1, “Benzylbenzimidazolyl derivatives” (priority 2003, published 2007).

This assay deals with TIE-2 (Homo sapiens, UniProt Q02763). Kind of assay: TIE-2 kinase flashplate assay (phosphorylation of poly(Glu, Tyr) with 33P-ATP). The class given is biochemical. As to conditions: read-out: Inhibition of TIE-2 IC50. As to the method: The TIE-2 tests can be carried out, for example, analogously to the methods indicated in WO 02/44156.
The assay determines the inhibiting activity of the substances to be tested in the phosphorylation of the substrate poly(Glu, Tyr) by Tie-2 kinase in the presence of radioactive ^33P-ATP. The phosphorylated substrate binds to the surface of a “flashplate” microtitre plate during the incubation time. After removal of the reaction mixture, the microtitre plate is washed a number of times and the radioactivity on its surface is subsequently measured. An inhibiting effect of the substances to be measured results in lower radioactivity compared with an undisturbed enzymatic reaction.

Sequence of TIE-2 (Q02763 23-1124, species assumed): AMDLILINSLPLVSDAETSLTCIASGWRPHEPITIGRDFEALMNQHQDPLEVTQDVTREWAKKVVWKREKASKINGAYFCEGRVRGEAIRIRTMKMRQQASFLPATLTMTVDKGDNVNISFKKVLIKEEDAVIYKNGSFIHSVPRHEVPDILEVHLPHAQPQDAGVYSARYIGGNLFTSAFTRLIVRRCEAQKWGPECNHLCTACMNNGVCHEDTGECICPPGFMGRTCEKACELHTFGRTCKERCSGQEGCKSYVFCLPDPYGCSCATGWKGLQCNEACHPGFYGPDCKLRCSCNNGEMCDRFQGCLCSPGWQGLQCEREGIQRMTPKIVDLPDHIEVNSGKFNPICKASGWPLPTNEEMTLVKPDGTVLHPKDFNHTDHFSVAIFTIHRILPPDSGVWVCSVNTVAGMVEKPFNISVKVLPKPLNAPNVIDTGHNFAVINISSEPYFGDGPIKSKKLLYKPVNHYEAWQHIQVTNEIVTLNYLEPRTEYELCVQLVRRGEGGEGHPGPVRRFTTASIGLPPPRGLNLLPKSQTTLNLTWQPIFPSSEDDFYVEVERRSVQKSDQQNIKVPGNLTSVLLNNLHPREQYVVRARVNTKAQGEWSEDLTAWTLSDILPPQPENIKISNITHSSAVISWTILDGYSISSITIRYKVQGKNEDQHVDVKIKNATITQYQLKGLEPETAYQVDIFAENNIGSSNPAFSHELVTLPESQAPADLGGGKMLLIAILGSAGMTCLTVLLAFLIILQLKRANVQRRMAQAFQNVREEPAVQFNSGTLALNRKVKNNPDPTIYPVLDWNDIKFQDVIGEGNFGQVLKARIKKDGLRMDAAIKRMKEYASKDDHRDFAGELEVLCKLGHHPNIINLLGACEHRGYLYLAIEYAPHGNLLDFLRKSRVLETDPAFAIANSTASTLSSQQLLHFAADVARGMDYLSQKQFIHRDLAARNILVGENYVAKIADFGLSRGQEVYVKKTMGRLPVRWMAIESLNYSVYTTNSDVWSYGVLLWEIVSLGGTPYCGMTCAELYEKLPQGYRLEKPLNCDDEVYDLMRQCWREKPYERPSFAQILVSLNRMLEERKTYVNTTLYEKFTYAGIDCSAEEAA

The term IC50 denotes the concentration at which inhibition is half-maximal. With `Nc1nc2cc(Br)ccc2n1Cc1ccc(NS(=O)(=O)c2cccc(Cl)c2Cl)cc1` [N-[4-(2-amino-5-bromo-benzimidazol-1-ylmethyl)-phenyl]-2,3-dichloro-benzenesulfonamide], the IC50 turned out to be 2780 nM.

On to `Nc1nc2cc(CCCO)ccc2n1Cc1ccc(NS(=O)(=O)c2cccc(Cl)c2Cl)cc1` [N-{4-[2-amino-5-(3-hydroxy-propyl)benzimidazol-1-yl-methyl]phenyl}-2,3-dichloro-benzenesulfonamide], for which the IC50 came to 320 nM.
